Patent publication US10258642B2, “Dextran sulfate for use in mobilization of cells” (TX MEDIC AB, priority 2013, dated 2019)
Values joined by “and” are separate entries in the source; they are usually repeats but may differ in a detail not shown here. Identical values can stand only once. Marks after values point to notes of the source that are not given here.

How the values were obtained:
peripheral blood cells [1] = test: s.c. dose finding study, hematological analysis of peripheral blood
stem cells = conditions: mice (Broxmeyer 2005); cited from earlier work
[2] = clinical trials (CHMP Assessment Report); cited from earlier work
HGF [3] = test: s.c. dose finding study, HGF-ELISA
[4] = system: hematopoietic colony-forming cells (CFC); test: i.v. dose finding study, colony-forming cell assay; format: in vivo, mice
Procedure: Blood (100-200 μL) was transferred to polypropylene tubes containing heparin (final concentration 17.5 IE/mL). Erythrocytes were depleted using ammonium chloride solution (StemCell Technologies, Vancouver, BC, Canada). Remaining cells were resuspended in Iscove's modified Dulbecco's Medium with 2% fetal bovine serum (StemCell Technologies) and mixed with 2 mL of methylcellulose media supplemented with a cocktail of recombinant cytokines (MethoCult 3434; StemCell Technologies) and penicillin-streptomycin according to manufacturer's instructions. Cultures of 1.1 mL containing HPCs were plated onto 35 mm dishes (Sarstedt, Landskrona, Sweden) and placed in a humidified chamber with 5% CO2 at 37° C. Total number of colonies was counted on day 12 of culture.

peripheral blood cells [5] = test: effect of administration route, hematological analysis; format: in vivo, mice; conditions: 30 minutes after administration
Procedure: (§1) Peripheral blood was sampled by terminal heart puncture under isoflurane-anesthesia using EDTA-flushed syringes and transferred to polypropylene tubes containing 1.6 mg EDTA (Sarstedt, Landskrona, Sweden).
Mobilization was performed on DBA/2N mice (9-10 months, Charles River) using 100 mg/kg dextran sulfate (Meito, i.v. and s.c.).
The effect on peripheral blood cells after administration of 100 mg/kg dextran sulfate i.v. and s.c. was compared (n=5). Cells were harvested 30 minutes after administration for both administration routes.

[6] = system: hematopoietic colony-forming cells (CFC); test: time-effect relationship, colony-forming cell assay; format: in vivo; conditions: mice
Source text: Peripheral blood was sampled by terminal heart puncture under isoflurane-anesthesia using EDTA-flushed (0.2 M EDTA prepared from a stock solution of 0.5 M EDTA (prepared by Rudbeck laboratory) diluted 1:2.5 in 0.9% NaCl) syringes.

HGF [7] = test: time-effect relationship, HGF-ELISA; format: in vivo, mice; conditions: for HGF highest level: 15 minutes after administration, mice; for HGF: i.v., plasma, HGF measured in another experiment
Procedure: Plasma was prepared by centrifuging EDTA blood for 5 minutes at 3000 g, and frozen at […] until analysis.

peripheral blood cells [8] = test: combination with G-CSF, hematological analysis; format: in vivo, mice; conditions: for release of lymphocytes in single therapy compared to single administration of G-CSF or plerixafor: mice
Procedure: G-CSF (NEUPOGEN®, Amgen, Holland) was supplied as sterile isotonic aqueous solution at 0.3 mg/mL and was diluted in normal saline to a concentration of 50 μg/mL. G-CSF was administered at a dose of 2.5 μg as a single subcutaneous injection, morning and evening Day -2 and Day -1. Dextran sulfate of different average molecular weights were used:
Standard treatment of patients prior to apheresis is based on daily injections of G-CSF for up to one week. Clinically dextran sulfate could be used in combination with G-CSF. In a study in mice 2.5 μg/animal of G-CSF was administered twice daily (8 hrs apart) for 2 days (Broxmeyer 1999).

lymphocytes = test: cell (lymphocyte) mobilization in humans after 10 min i.v. infusion; format: in vivo
Procedure: FIG. 13 illustrates mobilization of lymphocytes in peripheral blood in humans receiving a 10 min i.v. infusion of 15 mg/kg LMW-DS (top panel), 18 mg/kg LMW-DS (middle panel) or 24 mg/kg LMW-DS (lower panel) at time 0. The black line represents average lymphocyte levels and gray lines represent lymphocyte levels in individual humans.
Thus, the peak in cell mobilization starts about 1 hour after dextran sulfate administration, which is shown in […] exemplified by mobilization of lymphocytes following administration of different doses of dextran sulfate to human subjects at time 0 hours. Thus, the peak effect in cell mobilization in humans typically occurs within the first three hours following dextran sulfate administration.

peripheral blood cells [9] = conditions: single dose; AMD3100 s.c., dextran sulfate i.v.
SDF-1 = conditions: single injection, monkeys (Sweeney 2002); cited from earlier work
peripheral blood cells [10] = test: time-effect relationship, hematological analysis; conditions: 100 mg/kg i.v.; for Lymph / PLT / WBC: mean±SEM
Procedure: as §1

CFU-GM = conditions: colonies with >50 cells; G-CSF 10 μg/kg daily for five days and/or dextran sulfate 15 mg/kg once on day 5 (Han 1998); cited from earlier work
[11] = AMD3100 5 mg/kg s.c., 1 hour, mean ± SEM
[12] = LMW-DS (pKC) 10 mg/kg s.c., 3 hours, mean ± SEM
[13] = LMW-DS (pKC) 50 mg/kg s.c., 3 hours, mean ± SEM
[14] = LMW-DS (pKC) 150 mg/kg s.c., 3 hours, mean ± SEM
[15] = LMW-DS (pKC) 500 mg/kg s.c., 3 hours, mean ± SEM

## c1cc(CN2CCCNCCNCCCNCC2)ccc1CN1CCCNCCNCCCNCC1 [AMD3100, 1,1′-[1,4-phenylenebis (methylene)]-bis-1,4,8,11-tetraazacyclotetradecane, reference compound]
Peripheral blood cells [1]; [11]
  Basophils: 0.03 ± 0.0 10^9 cells/L
  Eosinophils: 0.3 ± 0.0* 10^9 cells/L
  LUC: 0.05 ± 0.0* 10^9 cells/L
  Leukocytes (WBC): 7.8 ± 0.6* 10^9 cells/L
  Lymphocytes: 5.3 ± 0.4 10^9 cells/L
  MPV: 8.0 ± 0.1
  Monocytes: 0.3 ± 0.0 10^9 cells/L
  Neutrophils: 1.8 ± 0.2* 10^9 cells/L
Peripheral blood cells [1]; mouse, in vivo, sc, 5 mg/kg
  Erythrocytes: 8.0 ± 0.0*** 10^12 cells/L
  Hemoglobin: 112.5 ± 0.9
  MCHC: 332.0 ± 2.0 g/L
  MCV: 42.7 ± 0.6 fL
  Platelets: 706.8 ± 30.7** 10^9 cells/L
  Reticulocytes: 186.3 ± 23.7 10^9 cells/L
Stem cells
  time of peak in mobilized stem cells after plerixafor administration: 1 h
[2]
  HSCT patients who experienced infections after transplantation: 20-25%
HGF [3]; one hour after administration of AMD3100
  HGF levels: 650 ± 230 pg/mL

## dextran sulfate [LMW-DS]
Peripheral blood cells [1]; 10-500 mg/kg s.c., 3 hours after administration
  circulating white blood cells (WBC), mainly lymphocytes, and HGF: dose-dependent increase
Peripheral blood cells [1]; [12]
  Basophils: 0.02 ± 0.0 10^9 cells/L
  Eosinophils: 0.2 ± 0.0† 10^9 cells/L
  Erythrocytes: 9.0 ± 0.0††† 10^12 cells/L
  Hematocrit: 0.4 ± 0.0
  Hemoglobin: 122.0 ± 1.7
  LUC: 0.1 ± 0.0* 10^9 cells/L
  Leukocytes (WBC): 9.0 ± 1.2* 10^9 cells/L
  Lymphocytes: 6.1 ± 0.5** 10^9 cells/L
  MCHC: 323.7 ± 3.8 g/L
  MCV: 41.9 ± 0.1 fL
  MPV: 7.7 ± 0.2
  Monocytes: 0.6 ± 0.011 10^9 cells/L
  Neutrophils: 1.9 ± 0.4 10^9 cells/L
  Platelets: 1083.3 ± 116.3† 10^9 cells/L
  Reticulocytes: 222.7 ± 6.3 10^9 cells/L
Peripheral blood cells [1]; [13]
  Basophils: 0.03 ± 0.0 10^9 cells/L
  Eosinophils: 0.2 ± 0.0 10^9 cells/L
  Erythrocytes: 9.2 ± 0.4† 10^12 cells/L
  Hematocrit: 0.4 ± 0.0
  Hemoglobin: 127.8 ± 5.0
  LUC: 0.1 ± 0.0* 10^9 cells/L
  Leukocytes (WBC): 9.4 ± 0.7 10^9 cells/L
  Lymphocytes: 7.3 ± 0.6**/f 10^9 cells/L
  MCHC: 324.3 ± 1.41 g/L
  MCV: 42.6 ± 0.3 fL
  MPV: 7.9 ± 0.1
  Monocytes: 0.3 ± 0.1 10^9 cells/L
  Neutrophils: 1.5 ± 0.2 10^9 cells/L
  Platelets: 902.0 ± 96.4 10^9 cells/L
  Reticulocytes: 230.1 ± 64.6 10^9 cells/L
Peripheral blood cells [1]; [14]
  Basophils: 0.1 ± 0.0** 10^9 cells/L
  Eosinophils: 0.3 ± 0.1* 10^9 cells/L
  Erythrocytes: 8.3 ± 0.6 10^12 cells/L
  Hematocrit: 0.3 ± 0.0
  Hemoglobin: 113.3 ± 8.2
  LUC: 0.1 ± 0.0***/†† 10^9 cells/L
  Leukocytes (WBC): 15.7 ± 0.4***/††† 10^9 cells/L
  MCHC: 329.3 ± 4.9 g/L
  MCV: 41.7 ± 0.4 fL
  MPV: 7.2 ± 0.5
  Monocytes: 0.4 ± 0.0*/†† 10^9 cells/L
  Neutrophils: 2.4 ± 0.3** 10^9 cells/L
  Platelets: 893.5 ± 60.8† 10^9 cells/L
  Reticulocytes: 243.7 ± 23.7 10^9 cells/L
Peripheral blood cells [1]; [15]
  Basophils: 0.1 ± 0.0* 10^9 cells/L
  Eosinophils: 0.4 ± 0.1* 10^9 cells/L
  Erythrocytes: 9.4 ± 0.2††† 10^12 cells/L
  Hematocrit: 0.4 ± 0.0
  Hemoglobin: 130.3 ± 3.1
  LUC: 0.3 ± 0.2 10^9 cells/L
  Leukocytes (WBC): 21.8 ± 2.5***/†† 10^9 cells/L
  MCHC: 327.3 ± 2.5 g/L
  MCV: 42.4 ± 0.3 fL
  MPV: 7.9 ± 0.1
  Monocytes: 0.5 ± 0.1*/† 10^9 cells/L
  Neutrophils: 2.7 ± 0.3**/† 10^9 cells/L
  Platelets: 893.5 ± 61.0†† 10^9 cells/L
  Reticulocytes: 224.5 ± 35.2 10^9 cells/L
[4]; lowest dose given, 25 mg/kg i.v., p<0.001
  mobilization effect on CFC: significant evident already at the lowest dose given
[4]; single dose, AMD3100 s.c., dextran sulfate i.v.
  increase of CFC over control: 6-12 times
[4]; single i.v. injection
  BFU-E compared with AMD3100: seemed to increase BFU-E to a greater extent than AMD3100
Peripheral blood cells [5]; 100 mg/kg (Meito) i.v.
  Lymphocytes: 12.6 ± 1.7 *10^9/L
  WBC: 16.2 ± 1.8 *10^9/L
Peripheral blood cells [5]; 100 mg/kg (Meito) s.c.
  Lymphocytes: 9.9 ± 1.2 *10^9/L
Peripheral blood cells [5]; 100 mg/kg
  circulating WBC, lymphocytes, CFC or CFC subtypes, i.v. versus s.c.: no significant differences
[6]; 100 mg/kg i.v.
  time at which the number of CFCs peaks (peak starts): 7.5 min
  time of BFU-E peak: 7.5 min
  time of CFU-GM/CFU-GEMM peak: 15 to 30 min
[6]
  persistence of the CFC peak: at least 1 hour
  time of peak in mobilized cells (CFCs) after dextran sulfate administration: 7.5 to 30 min
HGF [7]; listed as Dextran sulfate
  HGF highest level: 16000 pg/mL
HGF [7]; listed as dextran sulfate
  HGF highest level: 15960 pg/mL and 16000 pg/mL
HGF [7]; after 15 minutes
  increase of HGF compared to baseline levels: > 100 fold
HGF [7]; dextran sulfate 15 minutes versus AMD3100 after 1 hour
  HGF increase relative to plerixafor (AMD3100): 25 fold
HGF [7]; 15 min
  HGF: 15,960 ± 1,450 pg/mL
HGF [7]; 30 min
  HGF: 13,800 ± 1,100 pg/mL
HGF [7]; 1 hr
  HGF: 7,740 ± 510 pg/mL
HGF [7]; 3 hr
  HGF: 710 ± 230 pg/mL
Peripheral blood cells [8]
  release of lymphocytes in single therapy compared to single administration of G-CSF or plerixafor: increased lymphocytes
Peripheral blood cells [8]; listed as dextran sulfate
  release of lymphocytes in single therapy compared to single administration of G-CSF or plerixafor: at least doubles
lymphocytes; humans
  time of peak in mobilized cells after dextran sulfate administration: 30 to 120 min
lymphocytes; preliminary human data
  time at which cell mobilization is back to normal levels: about 24 hours
  time at which cell mobilization starts to decline: about 6 hours
lymphocytes; preliminary human data, lymphocytes
  time of peak of cell mobilization after administration: about 1 hour
Peripheral blood cells [9]
  general increase of WBC over control: 4-5 times
SDF-1
  time of maximum levels of peripheral SDF-1: 6 h
  time of return of peripheral SDF-1 to baseline: 24 h
HGF [3]; 50, 150 and 500 mg/kg s.c.
  levels of circulating HGF: significantly (p<0.001) increased levels
Peripheral blood cells [10]
  number of platelets (PLT): did not affect
Peripheral blood cells [10]; 7.5 min
  Lymph: 4.6 ± 0.5*** *10^9/L
  PLT: 1,034 ± 31 *10^9/L
  WBC: 5.6 ± 0.5* *10^9/L
Peripheral blood cells [10]; 15 min
  Lymph: 8.9 ± 0.7*** *10^9/L
  PLT: 1,122 ± 58 *10^9/L
  WBC: 10.2 ± 0.7*** *10^9/L
Peripheral blood cells [10]; 30 min
  Lymph: 12.3 ± 1.1*** *10^9/L
  PLT: 978 ± 64 *10^9/L
  WBC: 14.6 ± 1.3*** *10^9/L
Peripheral blood cells [10]; 1 hr
  Lymph: 8.8 ± 0.5*** *10^9/L
  PLT: 965 ± 23 *10^9/L
  WBC: 11.2 ± 0.6*** *10^9/L
Peripheral blood cells [10]; 3 hr
  Lymph: 5.2 ± 0.8** *10^9/L
  PLT: 936 ± 26 *10^9/L
  WBC: 6.8 ± 1.0* *10^9/L
Peripheral blood cells [10]; mice
  time of highest numbers of WBC and lymphocytes: around 30 minutes

B1: G-CSF: granulocyte-colony stimulation factor (NEUPOGEN, Amgen) (protein, chains of the INN, looked up)
chain: MTPLGPASSLPQSFLLKCLEQVRKIQGDGAALQEKLCATYKLCHPEELVLLGHSLGIPWAPLSSCPSQALQLAGCLSQLHSGLFLYQGLLQALEGISPELGPTLDTLQLDVADFATTIWQQMEELGMAPALQPTQGAMPAFASAFQRRAGGVLVASHLQSFLEVSYRVLRHLAQP
Peripheral blood cells [8]; G-CSF 2×2.5 μg/day s.c. for 2 days
  number of WBC compared to normal: increased the number of WBC
CFU-GM
  CFU-GM level: 17.1±1.9 colonies
